Laboratory results reported in ChEMBL document CHEMBL1201862, “PubChem BioAssay data set” (2004).
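Exposure lasted 48 hours, with cells grown in 96-well plates and compounds tested at five concentrations. The concentration for 50% growth inhibition is given as GI50.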 Activity calls are given as the source filed them. No stated cut-off is given here; in the data, active = GI50 up to about 1.1 µM and inactive = higher.

Legend:
Test in all cases: inhibition of tumour cell growth, NCI panel, 48 h
LXFL 529 = test system: LXFL 529
NCI-H226 = test system: NCI-H226
A549 = test system: A549
OVCAR-4 = test system: OVCAR-4
SF-295 = test system: SF-295
CCRF-CEM = test system: CCRF-CEM
COLO 205 = test system: COLO 205
M19-MEL = test system: M19-MEL
SNB-75 = test system: SNB-75
TK-10 = test system: TK-10
RPMI-8226 = test system: RPMI-8226
KM12 = test system: KM12
NCI-H23 = test system: NCI-H23
NCI-H460 = test system: NCI-H460
SK-OV-3 = test system: SK-OV-3
DMS-273 = test system: DMS-273
DLD-1 = test system: DLD-1
Hs-578T = test system: Hs-578T
MCF7 = test system: MCF7

| Compound | GI50 (LXFL 529) | GI50 (NCI-H226) | GI50 (A549) | GI50 (OVCAR-4) | GI50 (SF-295) | GI50 (CCRF-CEM) | GI50 (COLO 205) | GI50 (M19-MEL) | GI50 (SNB-75) | GI50 (TK-10) | GI50 (RPMI-8226) | GI50 (KM12) | GI50 (NCI-H23) | GI50 (NCI-H460) | GI50 (SK-OV-3) | GI50 (DMS-273) | GI50 (DLD-1) | GI50 (Hs-578T) | GI50 (MCF7) |
| --- | --- | --- | --- | --- | --- | --- | --- | --- | --- | --- | --- | --- | --- | --- | --- | --- | --- | --- | --- |
| CC1=CC2=C(C)C3(CC3)[C@@](C)(O)C(=O)C2=C1 | 0.223 µM (active) | 0.231 µM (active) | 0.314 µM (active) | 0.174 µM (active) | 0.223 µM (active) | > 1 µM (active) | 0.221 µM (active) | 0.254 µM (active) | 0.19 µM (active) | 0.329 µM (active) | > 1 µM (active) | 0.355 µM (active) | 0.0822 µM (active) | 0.0783 µM (active) | 0.293 µM (active) | 0.189 µM (active) | 0.276 µM (active) |  |  |
| COC1=C(N)C(=O)c2nc(C)ccc2C1=O | 2.43 µM (inactive) | 1.04 µM (active) | 2.18 µM (inactive) | 1.89 µM (inactive) | 1.79 µM (inactive) | 17.2 µM (inactive) | 1.79 µM (inactive) | 0.308 µM (active) | 2.03 µM (inactive) | 8.2 µM (inactive) | 5.21 µM (inactive) | 1.87 µM (inactive) | 1.47 µM (inactive) | 2.08 µM (inactive) | 8.04 µM (inactive) | 1.83 µM (inactive) | 2.31 µM (inactive) |  |  |
| C/C(=N\NC(=S)N1CCN(C2CCCCCC2)CC1)c1ccccn1 | 0.001 µM (active) | 0.0655 µM (active) | < 0.0379 µM (active) | 0.041 µM (active) | < 0.0476 µM (active) | 0.01 µM (active) | 0.01 µM (active) | 0.34 µM (active) | 1.71 µM (inactive) | 0.74 µM (active) | 0.01 µM (active) | 0.0197 µM (active) | 0.01 µM (active) | 0.01 µM (active) | 0.0565 µM (active) | 0.01 µM (active) | 0.01 µM (active) | 1.49 µM (inactive) | 0.01 µM (active) |
| O=C1OC2C(O)COC2(O)C1(O)Cc1c[nH]c2ccccc12.O=C1OC2C(O)COC2(OCc2c[nH]c3ccccc23)C1O (stereo not drawn) | > 100 µM (inactive) | > 100 µM (inactive) | > 100 µM (inactive) | > 100 µM (inactive) | > 100 µM (inactive) | > 100 µM (inactive) | > 100 µM (inactive) | > 100 µM (inactive) | > 100 µM (inactive) | > 100 µM (inactive) | > 100 µM (inactive) | > 100 µM (inactive) | > 100 µM (inactive) | > 100 µM (inactive) | > 100 µM (inactive) | > 100 µM (inactive) | > 100 µM (inactive) |  |  |
| CCc1cccc(C)c1NC(=O)CC1C(=O)Nc2ccccc2S1(=O)=O (stereo not drawn) | 16.7 µM (inactive) | 33 µM (inactive) | 18.6 µM (inactive) | 14.9 µM (inactive) | 26.2 µM (inactive) | 13.7 µM (inactive) |  | 15.5 µM (inactive) | 16 µM (inactive) | 29.3 µM (inactive) | 13.9 µM (inactive) |  | 15.7 µM (inactive) | 13.1 µM (inactive) |  | 7.01 µM (inactive) | 15.8 µM (inactive) |  |  |
| Cc1nc2c(s/c(=N\N)n2-c2ccccc2)c(=O)[nH]1 | > 100 µM (inactive) | > 100 µM (inactive) | > 100 µM (inactive) | > 100 µM (inactive) | > 100 µM (inactive) | > 100 µM (inactive) | > 100 µM (inactive) | > 100 µM (inactive) | > 100 µM (inactive) | > 100 µM (inactive) | > 100 µM (inactive) | > 100 µM (inactive) | > 100 µM (inactive) | > 100 µM (inactive) | > 100 µM (inactive) | > 100 µM (inactive) | > 100 µM (inactive) |  |  |
| O=C(NO)C(=O)Nc1ccc(Cl)cc1[N+](=O)[O-] | > 100 µM (inactive) | > 100 µM (inactive) | > 100 µM (inactive) | > 100 µM (inactive) | > 100 µM (inactive) | > 100 µM (inactive) | > 100 µM (inactive) | > 100 µM (inactive) | > 100 µM (inactive) | > 100 µM (inactive) | > 100 µM (inactive) | > 100 µM (inactive) | > 100 µM (inactive) | > 100 µM (inactive) | > 100 µM (inactive) | > 100 µM (inactive) | > 100 µM (inactive) |  |  |
| O=C(O)COc1ccc(C(=O)/C(SS/C(C(=O)c2ccc(OCC(=O)O)c(Cl)c2Cl)=C2\C=C(c3ccc(Br)cc3)SS2)=C2/C=C(c3ccc(Br)cc3)SS2)c(Cl)c1Cl | 1.29 µM (inactive) | 6.81 µM (inactive) | 33.9 µM (inactive) | 4.51 µM (inactive) | 5.58 µM (inactive) | 3.21 µM (inactive) | 3.11 µM (inactive) | 5.45 µM (inactive) | 7.5 µM (inactive) | 26.7 µM (inactive) | 4.73 µM (inactive) | 8.13 µM (inactive) | 4.62 µM (inactive) | 19.3 µM (inactive) | 21.3 µM (inactive) | 23.8 µM (inactive) | 6.14 µM (inactive) | 3.57 µM (inactive) | 0.0513 µM (active) |
| O=c1c2ccccc2nc(-c2ccccc2)n1NC(=S)Nc1ccccc1 | 81.8 µM (inactive) | > 100 µM (inactive) | > 100 µM (inactive) | > 100 µM (inactive) | > 100 µM (inactive) | > 100 µM (inactive) | > 100 µM (inactive) | 94.4 µM (inactive) | 38.3 µM (inactive) | > 100 µM (inactive) | > 100 µM (inactive) | > 100 µM (inactive) | > 100 µM (inactive) | > 100 µM (inactive) | > 100 µM (inactive) | > 100 µM (inactive) | > 100 µM (inactive) |  |  |
| Cn1c(=O)n(C2(C)C[Se]C2)c2ccccc21 | > 100 µM (inactive) | > 100 µM (inactive) | > 100 µM (inactive) | > 100 µM (inactive) | > 100 µM (inactive) | > 100 µM (inactive) | > 100 µM (inactive) | > 100 µM (inactive) | > 100 µM (inactive) | > 100 µM (inactive) | > 100 µM (inactive) | > 100 µM (inactive) | > 100 µM (inactive) | > 100 µM (inactive) | > 100 µM (inactive) | > 100 µM (inactive) | > 100 µM (inactive) |  |  |
| Cc1cc2oc(-c3ccccc3)c(C)c(=O)c2c2c1OC(C)(C)S2 | > 100 µM (inactive) | > 100 µM (inactive) | 90.2 µM (inactive) | > 100 µM (inactive) | > 100 µM (inactive) | 62.8 µM (inactive) | 61.2 µM (inactive) | > 100 µM (inactive) | > 100 µM (inactive) | > 100 µM (inactive) | 47 µM (inactive) | 43.7 µM (inactive) | > 100 µM (inactive) | 92.7 µM (inactive) | > 100 µM (inactive) | 71.9 µM (inactive) | 99.1 µM (inactive) |  |  |
